Results reported in publication PMC10610545, “Preclinical Evaluation of an Imidazole-Linked Heterocycle for Alzheimer’s Disease” (Pharmaceutics, 2023).

What was measured:
[1] = target: imidazoline I2 receptors (I2-IR); assay: Competition binding against [3H]2-BFI, membranes from post-mortem human frontal cortex; details: for Ki: corresponds to pKiH, read-out: Ki of the high-affinity I2 site; for [3H]-2-BFI I2 pKi (One Site): monophasic fit; for [3H]-2-BFI I2 pKi (Two Sites), high affinity (pKiH) / [3H]-2-BFI I2 pKi (Two Sites), low affinity (pKiL): two-site model; for [3H]-2-BFI I2 pKi (Two Sites), high affinity (pKiH): high-affinity site; for [3H]-2-BFI I2 pKi (Two Sites), low affinity (pKiL): low-affinity site
Source text: The inhibition constant (Ki) for each compound was obtained and is expressed as the corresponding pKi. The selectivity for these two receptors was expressed by the I2/α2 index, calculated as the antilogarithm of the […] between pKi values for I2-IR and pKi values for α2-AR.
Preparation of cellular membranes.
Human brain samples were obtained at autopsy in the Basque Institute of Legal Medicine, Bilbao, Spain. Samples from the prefrontal cortex (Brodmann’s area 9) were dissected at the time of autopsy and immediately stored at -70 °C until assay. The study was developed in compliance with policies of research and ethical review boards for postmortem brain studies.
To obtain cellular membranes (P2 fraction) the different samples were homogenized using an ultraturrax in 10 volumes of homogenization buffer (0.25 M sucrose, 5 mM Tris–HCl, pH 7.4).
The crude homogenate was centrifuged for 5 min at 1000 g (4 °C) and the supernatant was centrifuged again for 10 min at 40,000 g (4 °C). The resultant pellet was washed twice in 5 volumes of homogenization buffer and recentrifuged in similar conditions. Protein content was measured according to the method of Bradford using BSA as standard.
Competition Binding Assays.
The pharmacological activity of the compounds was evaluated through competition binding studies against the I2-IR selective radioligand [3H]2-BFI or the α2-adrenergic receptor selective radioligand [3H]RX821002. Specific binding was measured in 0.25 mL aliquots (50 mM Tris-HCl, pH 7.5) containing 100 µg of membranes, which were incubated in 96-well plates either with […]
Incubations were terminated by separating free ligand from bound ligand by rapid filtration […]
counted for radioactivity by liquid scintillation spectrometry using a MicroBeta TriLux counter (PerkinElmer). Specific binding was determined and plotted as a function of the compound concentration. Nonspecific binding was determined in the presence of idazoxan (10–5 M), a compound with well stablished affinity for I2-IR and α2-adrenergic receptors, in [3H]2-BFI and [3H]RX821002 assays. To obtain the inhibition constant (Ki) analyses of competition experiments were performed by nonlinear regression using the GraphPad Prism program. Ki values were normalized to pKi values. I2-IR/α2 selectivity index was calculated as the antilogarithm of the difference between pKi values for I2-IR and pKi values for α2-ARs.

[2] = test system: HT-22 mouse hippocampal neuronal cell line; assay: Cytotoxicity of compounds alone, MTT assay, HT-22; assay type: cell-based; details: HT-22, 24 h, escalating concentrations
Procedure: In the study of neurotoxicity associated with AD, the HT22 mouse hippocampal neuronal cell line has been recognized as an effective cell model. HT22 cells were purchased from Merck-Sigma-Aldrich (SCC12, Madrid, Spain) and cultured in DMEM-F12 (Gibco, Fisher Scientific, Madrid, Spain) supplemented with foetal bovine serum (FBS, 10%) and 1% penicillin/streptomycin under standard conditions (37 °C, 5% CO2). The human dopaminergic cell line SH-SY5Y, in turn, has been widely used as an in vitro model to study the pathogenesis of PD associated with dopaminergic degeneration. Cells, acquired from the American Type Culture Collection (ATCC, Rockville, MD, USA, Ref.CRL-2266), were grown in RPMI medium (Gibco) supplemented with glutamine (2 mM), 10% FBS, and 1% penicillin/streptomycin under standard conditions. Semiconfluent cells (90%) were seeded on 96-well plates at 3 × 10^4 per well and incubated for 24 h before treatment.
Neuronal cultures, HT-22 and SH-SY5Y, seeded on 96-well plates were treated with LSL33, LSL34, and LSL60101 for 24 h, and viability was assessed using the MTT assay. […] Then, cultures were treated for 1h with LSL33 at 2 μM and LSL34 and LSL60101 at 1 μM. This dose was chosen based on previous studies. Subsequently, HT-22 cultures were exposed to glutamate (10 mM, Merck-Sigma), while SH-SY5Y cultures received 6-hydroxydopamine (6-OHDA, 35 μM, Merck-Sigma). The cells were then incubated for a minimum of 16 h. Finally, the cellular viability and nitrite production of the cultures were assessed.
The assessment of cell viability was conducted using the 3-(4,5-dimethylthiazol-2-yl)-5-(3-carboxymethoxyphenyl)-2-(4-sulfophenyl)-2H-tetrazolium (MTT) assay, following the instructions provided by the manufacturer (Roche Diagnostic, Darmstadt, Germany). […] The absorbance of the solution was measured at 595–650 nm using a spectrophotometer. The experiments were performed at least three times, and the results were expressed as a percentage of the control. […]

Row | [3H]-2-BFI I2 pKi (One Site) [1] | [3H]-2-BFI I2 pKi (Two Sites), high affinity (pKiH) [1] | Selectivity I2/α2 ([1]; antilog (pKi I2-IR − pKi α2-AR)) | Structure (SMILES) | Ki [1] | [3H]-2-BFI I2 pKi (Two Sites), low affinity (pKiL) [1] | cytotoxicity (MTT viability) [2]
1 | 6.67 ± 0.09 | 8.17 ± 0.19 | 3090 | c1ccc2oc(-c3ncc[nH]3)cc2c1 [LSL60101, reference compound] | 6.7 nM | 6.02 ± 0.10 | None of the compounds tested were cytotoxic
2 | 5.58 ± 0.31 | 9.23 ± 0.36 |  | Cl.c1ccc2oc(-n3ccnc3)cc2c1 [LSL34, 1-(Benzofuran-2-yl)-1H-imidazole hydrochloride] |  |  | None of the compounds tested were cytotoxic

Row | Structure (SMILES) | [3H]-2-BFI I2 pKi (One Site) [1] | [3H]-2-BFI I2 pKi (Two Sites), high affinity (pKiH) [1] | Selectivity I2/α2 ([1]; antilog (pKi I2-IR − pKi α2-AR)) | Ki [1] | [3H]-2-BFI I2 pKi (Two Sites), low affinity (pKiL) [1] | cytotoxicity (MTT viability) [2]
3 | Cl.c1ccc2sc(-c3ncc[nH]3)cc2c1 [LSL33, 2-(Benzo[b]thiophene-2-yl)-1H-imidazole hydrochloride] | 5.95 ± 0.24 | 10.1 ± 0.57 |  | 0.079 nM | 5.68 ± 0.25 | None of the compounds tested were cytotoxic
